Laboratory results as given in patent publication US10947574B2, “Method for producing fermented carotenoid using carotenoid-producing bacteria obtained by using cobalt-containing culturing medium” (ENEOS CORPORATION, priority 2015, dated 2021).

Test system: Paracoccus carotinifaciens strain E-396 (FERM BP-4283)
Test: Example 3: cobalt concentration series, growth (OD610) and carotenoid levels (HPLC)
Assay type: cell-based
Procedure: In the following examples, carotenoids were quantified by high performance liquid chromatography (HPLC) as follows.
Two columns of Inertsil SIL-100A, 5 μm (ϕ4.6 mm×250 mm) (GL Sciences Inc., Japan) were connected together for use as a column. For elution, a mixed solution of n-hexane, tetrahydrofuran and methanol (40:20:1) serving as a mobile phase was passed through the column at a flow rate of 1.0 mL per minute at a constant temperature around room temperature. For measurement, samples were each dissolved in tetrahydrofuran and diluted 100-fold with the mobile phase, and 20 μL aliquots of the resulting dilutions were injected into the column. The column eluates were detected at a wavelength of 470 nm. As a standard for quantification, astaxanthin (SIGMA, Cat. No. A9335) was used. The astaxanthin concentration of the standard solution was determined using the following equation after measuring the absorbance (A) of the standard solution at 477 nm and the area percentage % (B) of the astaxanthin peak in HPLC analysis under the above conditions.
Subsequently, a medium of the following composition (glucose 30 g/L, filtered corn steep liquor 30 g/L, ammonium sulfate 1.5 g/L, potassium dihydrogen phosphate 1.5 g/L, disodium hydrogen phosphate dodecahydrate 3.8 g/L, calcium chloride dihydrate 5.0 g/L, magnesium sulfate heptahydrate 0.7 g/L, iron sulfate heptahydrate 1.0 g/L, silicon-based defoaming agent 0.2 g/L) was dispensed in 7.2 ml volumes into cotton-plugged test tubes having an inner diameter of 18 mm to prepare 12 test tubes containing a test tube medium for production. The ingredients used to prepare the test tube medium for production were obtained from lots where microbial cells had been confirmed not to grow well.
The resulting culture solution was then inoculated in 0.05 ml volumes into the 12 types of test tube media for production having different cobalt concentrations, and cultured under shaking at 28° C. for 4 days at 300 spm.
The cobalt concentration in the cobalt chloride-free medium and the concentration of cobalt chloride added to each medium were summed up to calculate the concentration of cobalt present in each medium (Table 6).
After being cultured for 4 days, the culture solutions were each measured for microbial cell growth by OD610 and measure for carotenoid levels by HPLC. […] Moreover, FIGS. 2 to 4 show graphs plotted in enlarged scale for the high and low concentration ranges of cobalt present in the medium.

[1] = cobalt added 0.00042 μmol/L, present 0.0024 μmol/L
[2] = cobalt added 0.0042 μmol/L, present 0.0062 μmol/L
[3] = cobalt added 0.0084 μmol/L, present 0.0104 μmol/L
[4] = cobalt added 0.021 μmol/L, present 0.023 μmol/L
[5] = cobalt added 0.042 μmol/L, present 0.044 μmol/L
[6] = cobalt added 0.42 μmol/L, present 0.42 μmol/L
[7] = cobalt added 1.1 μmol/L, present 1.05 μmol/L
[8] = cobalt added 4.2 μmol/L, present 4.2 μmol/L
[9] = cobalt added 8.4 μmol/L, present 8.4 μmol/L
[10] = cobalt added 21 μmol/L, present 21 μmol/L
[11] = cobalt added 42 μmol/L, present 42 μmol/L

O.O.O.O.O.O.[Cl-].[Cl-].[Co+2] [Cobalt chloride hexahydrate]
Carotenoid: 3-Hydroxyechinenone [1]: 0.1 mg/L | Carotenoid: Adonirubin [1]: 0.0 mg/L | Carotenoid: Adonixanthin [1]: 3.0 mg/L | Carotenoid: Astaxanthin [1]: 0.8 mg/L | Carotenoid: Asteroidenone [1]: 0.1 mg/L | Carotenoid: Canthaxanthin [1]: 0.0 mg/L | Carotenoid: Echinenone [1]: 0.0 mg/L | Carotenoid: β-Carotene [1]: 0.2 mg/L | OD610 [1]: 5 | Total carotenoid [1]: 4.1 mg/L | Carotenoid: 3-Hydroxyechinenone [2]: 0.3 mg/L | Carotenoid: Adonirubin [2]: 0.4 mg/L | Carotenoid: Adonixanthin [2]: 7.0 mg/L | Carotenoid: Astaxanthin [2]: 3.6 mg/L | Carotenoid: Asteroidenone [2]: 0.3 mg/L | Carotenoid: Canthaxanthin [2]: 0.1 mg/L | Carotenoid: Echinenone [2]: 0.2 mg/L | Carotenoid: β-Carotene [2]: 1.0 mg/L | OD610 [2]: 9 | Total carotenoid [2]: 12.9 mg/L | Carotenoid: 3-Hydroxyechinenone [3]: 0.4 mg/L | Carotenoid: Adonirubin [3]: 1.3 mg/L | Carotenoid: Adonixanthin [3]: 4.0 mg/L | Carotenoid: Astaxanthin [3]: 11.7 mg/L | Carotenoid: Asteroidenone [3]: 0.4 mg/L | Carotenoid: Canthaxanthin [3]: 0.9 mg/L | Carotenoid: Echinenone [3]: 0.4 mg/L | Carotenoid: β-Carotene [3]: 1.1 mg/L | OD610 [3]: 18 | Total carotenoid [3]: 20.2 mg/L | Carotenoid: 3-Hydroxyechinenone [4]: 0.5 mg/L | Carotenoid: Adonirubin [4]: 8.3 mg/L | Carotenoid: Adonixanthin [4]: 3.1 mg/L | Carotenoid: Astaxanthin [4]: 26.5 mg/L | Carotenoid: Asteroidenone [4]: 0.4 mg/L | Carotenoid: Canthaxanthin [4]: 3.4 mg/L | Carotenoid: Echinenone [4]: 1.4 mg/L | Carotenoid: β-Carotene [4]: 1.0 mg/L | OD610 [4]: 34 | Total carotenoid [4]: 44.5 mg/L | Carotenoid: 3-Hydroxyechinenone [5]: 0.5 mg/L | Carotenoid: Adonirubin [5]: 6.4 mg/L | Carotenoid: Adonixanthin [5]: 3.5 mg/L | Carotenoid: Astaxanthin [5]: 25.5 mg/L | Carotenoid: Asteroidenone [5]: 0.4 mg/L | Carotenoid: Canthaxanthin [5]: 2.6 mg/L | Carotenoid: Echinenone [5]: 1.2 mg/L | Carotenoid: β-Carotene [5]: 0.8 mg/L | OD610 [5]: 35 | Total carotenoid [5]: 40.9 mg/L | Carotenoid: 3-Hydroxyechinenone [6]: 0.7 mg/L | Carotenoid: Adonirubin [6]: 5.8 mg/L | Carotenoid: Adonixanthin [6]: 3.2 mg/L | Carotenoid: Astaxanthin [6]: 28.6 mg/L | Carotenoid: Asteroidenone [6]: 0.5 mg/L | Carotenoid: Canthaxanthin [6]: 2.3 mg/L | Carotenoid: Echinenone [6]: 1.2 mg/L | Carotenoid: β-Carotene [6]: 0.8 mg/L | OD610 [6]: 37 | Total carotenoid [6]: 42.9 mg/L | Carotenoid: 3-Hydroxyechinenone [7]: 0.4 mg/L | Carotenoid: Adonirubin [7]: 7.0 mg/L | Carotenoid: Adonixanthin [7]: 1.7 mg/L | Carotenoid: Astaxanthin [7]: 26.8 mg/L | Carotenoid: Asteroidenone [7]: 0.3 mg/L | Carotenoid: Canthaxanthin [7]: 3.1 mg/L | Carotenoid: Echinenone [7]: 1.2 mg/L | Carotenoid: β-Carotene [7]: 0.8 mg/L | OD610 [7]: 37 | Total carotenoid [7]: 41.3 mg/L | Carotenoid: 3-Hydroxyechinenone [8]: 0.2 mg/L | Carotenoid: Adonirubin [8]: 14.3 mg/L | Carotenoid: Adonixanthin [8]: 0.7 mg/L | Carotenoid: Astaxanthin [8]: 14.2 mg/L | Carotenoid: Asteroidenone [8]: 0.1 mg/L | Carotenoid: Canthaxanthin [8]: 8.1 mg/L | Carotenoid: Echinenone [8]: 1.4 mg/L | Carotenoid: β-Carotene [8]: 0.7 mg/L | OD610 [8]: 33 | Total carotenoid [8]: 39.7 mg/L | Carotenoid: 3-Hydroxyechinenone [9]: 0.1 mg/L | Carotenoid: Adonirubin [9]: 11.9 mg/L | Carotenoid: Adonixanthin [9]: 0.3 mg/L | Carotenoid: Astaxanthin [9]: 9.3 mg/L | Carotenoid: Asteroidenone [9]: 0.1 mg/L | Carotenoid: Canthaxanthin [9]: 9.9 mg/L | Carotenoid: Echinenone [9]: 2.0 mg/L | Carotenoid: β-Carotene [9]: 0.8 mg/L | OD610 [9]: 31 | Total carotenoid [9]: 34.4 mg/L | Carotenoid: 3-Hydroxyechinenone [10]: 0.1 mg/L | Carotenoid: Adonirubin [10]: 6.5 mg/L | Carotenoid: Adonixanthin [10]: 0.2 mg/L | Carotenoid: Astaxanthin [10]: 1.9 mg/L | Carotenoid: Asteroidenone [10]: 0.1 mg/L | Carotenoid: Canthaxanthin [10]: 9.4 mg/L | Carotenoid: Echinenone [10]: 2.8 mg/L | Carotenoid: β-Carotene [10]: 1.2 mg/L | OD610 [10]: 23 | Total carotenoid [10]: 22.2 mg/L | Carotenoid: 3-Hydroxyechinenone [11]: 0.0 mg/L | Carotenoid: Adonirubin [11]: 0.2 mg/L | Carotenoid: Adonixanthin [11]: 0.0 mg/L | Carotenoid: Astaxanthin [11]: 0.1 mg/L | Carotenoid: Asteroidenone [11]: 0.0 mg/L | Carotenoid: Canthaxanthin [11]: 0.1 mg/L | Carotenoid: Echinenone [11]: 0.0 mg/L | Carotenoid: β-Carotene [11]: 0.0 mg/L | OD610 [11]: 3 | Total carotenoid [11]: 0.4 mg/L
